Test results published in US8236756B2, “Prodrugs cleavable by CD26” (Consejo Superior de Investigaciones Clentificas (CSIC), priority 2003, dated 2012).

How the values were obtained:
[1] = Solubility in Milli-Q water; type: physicochemical; conditions: 1 mg/ml in Milli-Q water; 2 × 10 sec sonication, 4 days shaking, room temperature; centrifugation, U.V. spectrum
From the text: It is also clear that the nature of the dipeptide moiety present on NAP-TSAO markedly affect prodrug solubility in water.

purified CD26 = target: T1, purified CD26 (Homo sapiens, UniProt P27487); assay: Conversion of peptide prodrugs to parent compound by purified CD26 (HPLC); type: biochemical; conditions: for Conversion % to parent compound by purified CD26, 1 h / Conversion % to parent compound by purified CD26, 4 h / Conversion % to parent compound by purified CD26, 24 h: Table 1
T1 construct: made in house
T1 sequence (P27487 whole entry): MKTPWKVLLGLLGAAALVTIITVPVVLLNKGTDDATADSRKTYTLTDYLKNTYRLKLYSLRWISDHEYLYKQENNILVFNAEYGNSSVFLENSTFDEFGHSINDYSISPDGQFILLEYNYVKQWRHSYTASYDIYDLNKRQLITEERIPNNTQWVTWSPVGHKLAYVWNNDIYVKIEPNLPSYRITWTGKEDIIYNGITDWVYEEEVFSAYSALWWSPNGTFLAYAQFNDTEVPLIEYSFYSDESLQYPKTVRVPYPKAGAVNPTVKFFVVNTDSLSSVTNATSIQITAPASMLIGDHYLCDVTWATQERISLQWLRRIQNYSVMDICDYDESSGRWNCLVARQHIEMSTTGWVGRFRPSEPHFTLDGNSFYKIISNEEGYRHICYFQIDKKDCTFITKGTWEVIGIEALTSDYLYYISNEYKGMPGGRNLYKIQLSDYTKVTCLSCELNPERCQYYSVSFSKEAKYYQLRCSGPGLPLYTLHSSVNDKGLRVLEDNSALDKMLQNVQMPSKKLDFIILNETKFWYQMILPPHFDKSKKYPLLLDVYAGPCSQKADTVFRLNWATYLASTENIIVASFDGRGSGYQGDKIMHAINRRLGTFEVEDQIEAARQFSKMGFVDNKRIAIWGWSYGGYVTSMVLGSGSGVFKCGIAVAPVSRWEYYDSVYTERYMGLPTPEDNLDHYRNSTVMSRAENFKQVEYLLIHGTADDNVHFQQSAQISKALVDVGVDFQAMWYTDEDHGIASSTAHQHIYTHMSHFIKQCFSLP
Description: To reveal whether CD26 recognizes such synthetic di/tripeptide derivatives of lipophilic nucleoside analogues as a substrate, 50 μM CAM-405 or CAM-431 was exposed to 5.7 mUnits of purified CD26, and the conversion of CAM-405 or CAM-431 to respectively CAM-212 or CAM-403 (Val-NAP-TSAO) was recorded in function of incubation time by HPLC analysis. […] Within the first 10 min of the reaction, at least 20% of CAM-405 had been converted to CAM-212, fifty percent of the TSAO dipeptide derivative was converted to CAM-212 within 30 min of the reaction and ˜67% of CAM-405 was hydrolyse after 60 min. Thus, the reaction rate started already to slow down after the first 10 min of drug exposure (FIG. 2). Most likely, the release of the reaction product Val-Pro dose-dependently feed-back inhibited the CD26-catalysed dipeptidyl-peptidase reaction. […] Thus, in the presence of 50 μM CAM-405, hydrolysis of 50% of CAM-405 to CAM-212 results in the appearance of 25 μM Val-Pro, that is a concentration that (feed-back) inhibits the CD26 reaction by ˜50%. These findings explain why the CD26-catalysed reaction levels-off shortly after the start of the exposure of the drug to CD26. […] Thus, a further level of modulation of the rate of prodrug release can be introduced by choosing a dipeptide moiety that competes for the active site of CD26, until the dipeptide has diffused from the tissue wherein CD26 is present. The inhibitory activity of any dipeptide can be evaluated by the above mentioned assay.
The conversion rate in function of time is given in Table 1 for NAP-TSAO-dipeptides where the dipeptide consists of: Val-Pro, Val-D-Pro, Asp-Pro, Lys-Pro, Tyr-Pro, Gly-Pro, Val-4-hydroxyPro, Gly-3,4-dihydroxyPro, but also Val-Gly, Val-Ala, Val-Leu and Val-Phe. It is clear that the conversion rate to the parent NAP-TSAO differs depending the nature of the dipeptide. Also, when the terminal amine of the dipeptide has been blocked by a lipophilic group (i.e. methyl, Z or Fmoc), the prodrug looses measurable substrate activity for CD26.
The conversion rate in function of time is given in Table 2 for tetrapeptide NAP-TSAO compounds where the tetrapeptide consists of: Val-Pro-Val-Pro [SEQ ID no:6] (CAM 467), Val-Ala-Val-Pro [SEQ ID no:7] (CAM 473) or Lys-Pro-Asp-Pro [SEQ ID no:8] (CAM 477). […] Only traces of dipeptide prodrug (CAM 405) is seen as intermediate in the conversion of the tetrapeptide CAM 473 to NAP-TSAO.
All enzyme activity assays were performed in Eppendorf tubes on a heating block at 37° C. To each tube were added 32 μl CD26 (at a final concentration of 1.5 milliUnits) or 10 μl foetal bovine serum (BS) (final concentration: 2.5% BS in PBS; preheated at 56° C. for 30 min) or 10 μl human serum (HS) (final concentration: 2.5% HS in PBS), 40 μl of appropriate concentrations of inhibitor (Diprotin A) solution in PBS (for the exact concentrations, see the legend to FIG. 5), CAM-405 (the substrate of the reaction) at […] (final concentration) and PBS to reach a total volume of 400 μl. The pH of the reaction mixture was 7.5, which is virtually identical to the physiological pH of plasma. The reaction was started by the addition of the enzyme or serum and carried out at 37° C. After 5 hr, 100 μl reaction mixture was taken from the Eppendorf tube and added to 200 μl cold methanol to precipitate the proteins. After 10 min standing on ice, the contents of the tubes were centrifuged and the supernatants analysed by HPLC on a reverse phase column (RP-8, Merck Laboratories). CAM-405 was separated from CAM-212 (the product of the reaction) by a gradient of 50 mM sodium phosphate+5 mM heptane sulfonic acid pH 3.2 (Buffer A) and acetonitrile (Buffer B) as follows: Buffer A: 98%+2% Buffer B, 2 min; linear gradient to 20% Buffer. […]

[2] = Conversion of prodrugs to parent compound by human serum diluted in PBS; type: in vitro ADME; conditions: 50 μM; 20% human serum in PBS (FIG. 6)
Description: Human and bovine serum were incubated for 3 hr, 6 hr and/or 24 hr at 37° C. in the presence of 50 μM CAM-405. The sera were diluted in PBS at a final concentration of 0.5, 1, 2.5 or 5%. […] The longer the incubation time, and the higher the serum concentration used, the faster the conversion of CAM-405 to CAM-212 occurred (FIG. 4). As also noted for CD26, HS- and BS-catalysed reaction slowed down in function of time, and was not linearly proportional with serum concentration (FIG. 4). These findings provide again evidence for a pronounced feed-back inhibition of dipeptidyl-peptidase activity in human and bovine serum by the released Val-Pro dipeptide. HS was more efficient in converting CAM-405 to CAM-212 than BS (FIG. 4). Since 1% HS is able to hydrolyse ˜20% of 50 μM CAM-405 within 3 hrs of incubation, it could be calculated that undiluted serum would have been able to convert this prodrug amount to its parent compound at a hundred fold higher speed, that is, within 1.8 min, provided that no feed-back inhibition would have occurred (as expected in the intact organism where release of Pro-Val would immediately result in disappearance from the plasma due to several mechanisms including organ uptake, renal excretion, etc.).
Only a very limited amount of NAP-TSAO (but not D-Pro-NAP-TSAO) had been detected (FIG. 6).
Ten percent BS or HS converted 40 to 70% of PI-2 to PI-1 in one hour (FIG. 10). Two percent BS and HS converted PI-2 to PI-1 by 8% and 25%, respectively. After 4 hrs, 35% and 95% of compound was hydrolyzed by BS and HS, respectively (FIG. 11).
The TSAO derivatives depicted in FIG. 1 can be synthesised as described below. GlyPro-pNA (GP-pNA), Diprotin A and Val-Pro were purchased from Sigma-Aldrich (Bornem, Belgium). CD26 was purified as described before [De Meester et al. J. Immunol. Methods (1996), 189: 99-105]. Foetal bovine serum (FBS) was obtained from Integro (Dieren, The Netherlands). Human serum represented a pooled serum that was derived from 10 healthy volunteers (blood donors). Human lymphocyte CEM cells were derived from the ATCC (Rockville, Md.).

Compound | Spectrum (~265 nm) [1] | Conversion % to parent compound by purified CD26, 1 h (purified CD26; purified CD26 1.5 mUnits, 1 h) [%] | Conversion % to parent compound by purified CD26, 4 h (purified CD26; purified CD26 1.5 mUnits, 4 h) [%] | Conversion % to parent compound by purified CD26, 24 h (purified CD26; purified CD26 1.5 mUnits, 24 h) [%] | % conversion to parent compound by purified CD26, 1 h (purified CD26; Table 2, purified CD26 1.5 mUnits, 1 h) [%] | % conversion to parent compound by purified CD26, 4 h (purified CD26; Table 2, purified CD26 1.5 mUnits, 4 h) [%] | % conversion to parent compound by purified CD26, 24 h (purified CD26; Table 2, purified CD26 1.5 mUnits, 24 h) [%] | Conversion by 20% human serum, in words [2] | Conversion / substrate activity with purified CD26, in words (purified CD26; purified CD26)
Cc1cn(C2OC(CO[Si](C)(C)C(C)(C)C)C3(OS(=O)(=O)C=C3N)C2O[Si](C)(C)C(C)(C)C)c(=O)n(CCCNC(=O)[C@H]2CCCN2C(=O)[C@@H](N)C(C)C)c1=O (stereo partly drawn) [CAM-430, H-Val-D-Pro-NAP-TSAO] | 3.220 | 0 | ~1 | ~2 |  |  |  | very stable | 
Cc1cn(C2OC(CO[Si](C)(C)C(C)(C)C)C3(OS(=O)(=O)C=C3N)C2O[Si](C)(C)C(C)(C)C)c(=O)n(CCCNC(=O)CNC(=O)[C@@H](N)C(C)C)c1=O (stereo partly drawn) [CAM-422, H-Val-Gly-NAP-TSAO] | 1.886 | 0 | 0 | 0 |  |  |  | efficiently (but solely) converted to Gly-NAP-TSAO | 
Cc1cn(C2OC(CO[Si](C)(C)C(C)(C)C)C3(OS(=O)(=O)C=C3N)C2O[Si](C)(C)C(C)(C)C)c(=O)n(CCCNC(=O)C(NC(=O)C2CCCN2C(=O)C(N)C(C)C)C(C)C)c1=O (stereo not drawn) [CAM-431, H-Val-Pro-Val-NAP-TSAO] |  |  | 51 | ~70 |  |  |  | very efficiently converted predominantly to Val-TSAO | hydrolyse by CD26
Cc1cn([C@@H]2O[C@H](CO[Si](C)(C)C(C)(C)C)[C@@]3(OS(=O)(=O)C=C3N)[C@H]2O[Si](C)(C)C(C)(C)C)c(=O)n(C)c1=O [m-3T-TSAO, 3-methyl-TSAO-T, reference compound] | 0.100 |  |  |  |  |  |  |  | 

More lines, now with the values ahead:

Spectrum (~265 nm) [1] | Conversion % to parent compound by purified CD26, 1 h (purified CD26; purified CD26 1.5 mUnits, 1 h) [%] | Conversion % to parent compound by purified CD26, 4 h (purified CD26; purified CD26 1.5 mUnits, 4 h) [%] | Conversion % to parent compound by purified CD26, 24 h (purified CD26; purified CD26 1.5 mUnits, 24 h) [%] | % conversion to parent compound by purified CD26, 1 h (purified CD26; Table 2, purified CD26 1.5 mUnits, 1 h) [%] | % conversion to parent compound by purified CD26, 4 h (purified CD26; Table 2, purified CD26 1.5 mUnits, 4 h) [%] | % conversion to parent compound by purified CD26, 24 h (purified CD26; Table 2, purified CD26 1.5 mUnits, 24 h) [%] | Conversion by 20% human serum, in words [2] | Conversion / substrate activity with purified CD26, in words (purified CD26; purified CD26) | Compound
0.650 | 0 | 6.5 | 35 | 0 | 6.5 | 35 |  |  | Cc1cn(C2OC(CO[Si](C)(C)C(C)(C)C)C3(OS(=O)(=O)C=C3N)C2O[Si](C)(C)C(C)(C)C)c(=O)n(CCCNC(=O)[C@H](C)NC(=O)[C@@H](N)C(C)C)c1=O (stereo partly drawn) [CAM-424, H-Val-Ala-NAP-TSAO]
 | 0 | 0 | 0 |  |  |  | convert to a limited extent |  | Cc1cn(C2OC(CO[Si](C)(C)C(C)(C)C)C3(OS(=O)(=O)C=C3N)C2O[Si](C)(C)C(C)(C)C)c(=O)n(CCCNC(=O)C(CC(C)C)NC(=O)C(N)C(C)C)c1=O (stereo not drawn) [CAM-426, H-Val-Leu-NAP-TSAO]
 | 0 | 0 | 0 |  |  |  | convert to a limited extent |  | Cc1cn(C2OC(CO[Si](C)(C)C(C)(C)C)C3(OS(=O)(=O)C=C3N)C2O[Si](C)(C)C(C)(C)C)c(=O)n(CCCNC(=O)C(Cc2ccccc2)NC(=O)C(N)C(C)C)c1=O (stereo not drawn) [CAM-428, H-Val-Phe-NAP-TSAO]
